Measured values as given in ChEMBL document CHEMBL5154747, “Discovery of new carbonic anhydrase IX inhibitors as anticancer agents by toning the hydrophobic and hydrophilic rims of the active site to encounter the dual-tail approach” (Eur J Med Chem, 2022).

Target: Carbonic anhydrase 9 (Homo sapiens, UniProt Q16790)
Assay: Inhibition of recombinant human CA 9 preincubated for 15 mins by phenol red dye based stopped flow CO2 hydration assay
Details: not given

Row | SMILES | Ki
1 | CN(C)c1ccc(/C=N/Nc2nc(Nc3ccccc3)nc(Nc3ccc(S(N)(=O)=O)cc3)n2)cc1 | 13.3 nM

System: CCRF-CEM
Assay: Anticancer activity against human CCRF-CEM cells assessed as cell growth inhibition at 10 uM incubated for 48 hrs by SRB assay relative to control
Type: functional
Details: read-out: GI

Row | SMILES | inhibition of growth at 10 µM
2 | CN(C)c1ccc(/C=N/Nc2nc(Nc3ccccc3)nc(Nc3ccc(S(N)(=O)=O)cc3)n2)cc1 | 53%

System: HL-60(TB)
Assay: Anticancer activity against human HL-60(TB) cells assessed as cell growth inhibition at 10 uM incubated for 48 hrs by SRB assay relative to control
Type: functional
Details: read-out: GI

Row | SMILES | inhibition of growth at 10 µM
3 | CN(C)c1ccc(/C=N/Nc2nc(Nc3ccccc3)nc(Nc3ccc(S(N)(=O)=O)cc3)n2)cc1 | 29%

System: K562
Assay: Anticancer activity against human K562 cells assessed as cell growth inhibition at 10 uM incubated for 48 hrs by SRB assay relative to control
Type: functional
Details: read-out: GI

Row | SMILES | inhibition of growth at 10 µM
4 | CN(C)c1ccc(/C=N/Nc2nc(Nc3ccccc3)nc(Nc3ccc(S(N)(=O)=O)cc3)n2)cc1 | 39%

System: RPMI-8226
Assay: Anticancer activity against human RPMI-8226 cells assessed as cell growth inhibition at 10 uM incubated for 48 hrs by SRB assay relative to control
Type: functional
Details: read-out: GI

Row | SMILES | inhibition of growth at 10 µM
5 | CN(C)c1ccc(/C=N/Nc2nc(Nc3ccccc3)nc(Nc3ccc(S(N)(=O)=O)cc3)n2)cc1 | 52%

System: SR
Assay: Anticancer activity against human SR cells assessed as cell growth inhibition at 10 uM incubated for 48 hrs by SRB assay relative to control
Type: functional
Details: read-out: GI

Row | SMILES | inhibition of growth at 10 µM
6 | CN(C)c1ccc(/C=N/Nc2nc(Nc3ccccc3)nc(Nc3ccc(S(N)(=O)=O)cc3)n2)cc1 | 29%

System: EKVX
Assay: Anticancer activity against human EKVX cells assessed as cell growth inhibition at 10 uM incubated for 48 hrs by SRB assay relative to control
Type: functional
Details: read-out: GI

Row | SMILES | inhibition of growth at 10 µM
7 | CN(C)c1ccc(/C=N/Nc2nc(Nc3ccccc3)nc(Nc3ccc(S(N)(=O)=O)cc3)n2)cc1 | < 10%

System: HOP-92
Assay: Anticancer activity against human HOP-92 cells assessed as cell growth inhibition at 10 uM incubated for 48 hrs by SRB assay relative to control
Type: functional
Details: read-out: GI

Row | SMILES | inhibition of growth at 10 µM
8 | CN(C)c1ccc(/C=N/Nc2nc(Nc3ccccc3)nc(Nc3ccc(S(N)(=O)=O)cc3)n2)cc1 | < 10%

System: NCI-H23
Assay: Anticancer activity against human NCI-H23 cells assessed as cell growth inhibition at 10 uM incubated for 48 hrs by SRB assay relative to control
Type: functional
Details: read-out: GI

Row | SMILES | inhibition of growth at 10 µM
9 | CN(C)c1ccc(/C=N/Nc2nc(Nc3ccccc3)nc(Nc3ccc(S(N)(=O)=O)cc3)n2)cc1 | 13%

System: NCI-H460
Assay: Anticancer activity against human NCI-H460 cells assessed as cell growth inhibition at 10 uM incubated for 48 hrs by SRB assay relative to control
Type: functional
Details: read-out: GI

Row | SMILES | inhibition of growth at 10 µM
10 | CN(C)c1ccc(/C=N/Nc2nc(Nc3ccccc3)nc(Nc3ccc(S(N)(=O)=O)cc3)n2)cc1 | < 10%

System: NCI-H522
Assay: Anticancer activity against human NCI-H522 cells assessed as cell growth inhibition at 10 uM incubated for 48 hrs by SRB assay relative to control
Type: functional
Details: read-out: GI

Row | SMILES | inhibition of growth at 10 µM
11 | CN(C)c1ccc(/C=N/Nc2nc(Nc3ccccc3)nc(Nc3ccc(S(N)(=O)=O)cc3)n2)cc1 | 20%

System: COLO 205
Assay: Anticancer activity against human COLO 205 cells assessed as cell growth inhibition at 10 uM incubated for 48 hrs by SRB assay relative to control
Type: functional
Details: read-out: GI

Row | SMILES | inhibition of growth at 10 µM
12 | CN(C)c1ccc(/C=N/Nc2nc(Nc3ccccc3)nc(Nc3ccc(S(N)(=O)=O)cc3)n2)cc1 | < 10%

System: HCC 2998
Assay: Anticancer activity against human HCC 2998 cells assessed as cell growth inhibition at 10 uM incubated for 48 hrs by SRB assay relative to control
Type: functional
Details: read-out: GI

Row | SMILES | inhibition of growth at 10 µM
13 | CN(C)c1ccc(/C=N/Nc2nc(Nc3ccccc3)nc(Nc3ccc(S(N)(=O)=O)cc3)n2)cc1 | < 10%

System: HCT-116
Assay: Anticancer activity against human HCT-116 cells assessed as cell growth inhibition at 10 uM incubated for 48 hrs by SRB assay relative to control
Type: functional
Details: read-out: GI

Row | SMILES | inhibition of growth at 10 µM
14 | CN(C)c1ccc(/C=N/Nc2nc(Nc3ccccc3)nc(Nc3ccc(S(N)(=O)=O)cc3)n2)cc1 | 45%

System: HCT-15
Assay: Anticancer activity against human HCT-15 cells assessed as cell growth inhibition at 10 uM incubated for 48 hrs by SRB assay relative to control
Type: functional
Details: read-out: GI

Row | SMILES | inhibition of growth at 10 µM
15 | CN(C)c1ccc(/C=N/Nc2nc(Nc3ccccc3)nc(Nc3ccc(S(N)(=O)=O)cc3)n2)cc1 | 20%

System: HT-29
Assay: Anticancer activity against human HT-29 cells assessed as cell growth inhibition at 10 uM incubated for 48 hrs by SRB assay relative to control
Type: functional
Details: read-out: GI

Row | SMILES | inhibition of growth at 10 µM
16 | CN(C)c1ccc(/C=N/Nc2nc(Nc3ccccc3)nc(Nc3ccc(S(N)(=O)=O)cc3)n2)cc1 | 43%

System: SW-620
Assay: Anticancer activity against human SW-620 cells assessed as cell growth inhibition at 10 uM incubated for 48 hrs by SRB assay relative to control
Type: functional
Details: read-out: GI

Row | SMILES | inhibition of growth at 10 µM
17 | CN(C)c1ccc(/C=N/Nc2nc(Nc3ccccc3)nc(Nc3ccc(S(N)(=O)=O)cc3)n2)cc1 | 17%

System: SF-539
Assay: Anticancer activity against human SF-539 cells assessed as cell growth inhibition at 10 uM incubated for 48 hrs by SRB assay relative to control
Type: functional
Details: read-out: GI

Row | SMILES | inhibition of growth at 10 µM
18 | CN(C)c1ccc(/C=N/Nc2nc(Nc3ccccc3)nc(Nc3ccc(S(N)(=O)=O)cc3)n2)cc1 | 59%

System: SNB-19
Assay: Anticancer activity against human SNB-19 cells assessed as cell growth inhibition at 10 uM incubated for 48 hrs by SRB assay relative to control
Type: functional
Details: read-out: GI

Row | SMILES | inhibition of growth at 10 µM
19 | CN(C)c1ccc(/C=N/Nc2nc(Nc3ccccc3)nc(Nc3ccc(S(N)(=O)=O)cc3)n2)cc1 | 16%

System: SNB-75
Assay: Anticancer activity against human SNB-75 cells assessed as cell growth inhibition at 10 uM incubated for 48 hrs by SRB assay relative to control
Type: functional
Details: read-out: GI

Row | SMILES | inhibition of growth at 10 µM
20 | CN(C)c1ccc(/C=N/Nc2nc(Nc3ccccc3)nc(Nc3ccc(S(N)(=O)=O)cc3)n2)cc1 | 12%
